Experimental data reported in patent US20140259223A1, “METHODS FOR PRODUCING CINNAMOLIDE AND/OR DRIMENDIOL” (Keygene N.V., priority 2011, published 2014).

What was measured:
Myzus persicae = experiment: dual-choice insect feeding assay on tomato leaf disks, aphids; assay type: in vivo; details: for effect on feeding at the lowest concentration used: lowest concentration used (113 μg gFW^−1 for cinnamolide)
Procedure: (§1) The insects used in this study were the silverleaf whitefly Bemisia tabaci (genotype B) and the green peach aphid Myzus persicae. Whiteflies were reared on tomato (Moneymaker cultivar) in a greenhouse at 26° C., at 60% relative humidity with a photoperiod of 16 h light and 8 h dark. To perform the assays, adult flies of both genders were collected from leaves with an aspirator. They were cold-anesthetized at 7° C. in a 3 cm diameter plastic cylinder covered with Parafilm® for 5 min, before being released into the Petri dish at the start of the dual-choice assay, to ensure they would not fly out before the dishes were sealed. Apterous (without wings) aphid adults were collected from Chinese cabbage (Brassica rapa L. subspecies pekinensis), on which they had been reared at room temperature in ambient light. They were collected in 2 ml test tubes and starved for about 30 min before inoculating them in the dishes. In the dual-choice assays, insects were presented with circular tomato leaf areas coated with either 50% ethanol in water (control) or a solution of cinnamolide in 50% ethanol in water (treatment; two disks with each solution). Cinnamolide was firstly dissolved in 96% ethanol at a concentration of 2 mg mL^−1; subsequently an equal volume of water was added bringing the maximum concentration used to 1 mg mL^−1. Further dilutions were performed adding directly one volume of 50% ethanol in water to one volume of the previous concentration. The three concentrations used were therefore 1 mg mL^−1, 500 μg mL^−1 and 250 μg mL^−1. […] The assays were carried on for either 18 or 24 h and the feeding insects counted at 30 min, 1 h, 2 h, 6 h, and 18 h for whiteflies and at 30 min, 1 h, 2 h, 6 h, and 24 h for aphids. […] To convert data from the concentration in ethanol, expressed as mg mL^−1, into concentration expressed as mg gFW^−1, the value must be multiplied by 15 (the volume in μL applied on each disk) and divided by 0.034 (mass of leaf disk in grams). […]

Bemisia tabaci = experiment: dual-choice insect feeding assay on tomato leaf disks, whiteflies; assay type: in vivo
Procedure: as §1, with “dishes.” for “dishes. In the dual-choice assays, insects were presented with circular tomato leaf areas coated with either 50% ethanol in water (control) or a solution of cinnamolide in 50% ethanol in water (treatment; two disks with each solution). Cinnamolide was firstly dissolved in 96% ethanol at a concentration of 2 mg mL^−1; subsequently an equal volume of water was added bringing the maximum concentration used to 1 mg mL^−1. Further dilutions were performed adding directly one volume of 50% ethanol in water to one volume of the previous concentration. The three concentrations used were therefore 1 mg mL^−1, 500 μg mL^−1 and 250 μg mL^−1.”

[1] = 450, 225 and 113 μg gFW^−1, 6 h

Compound	effect on feeding at the lowest concentration used (Myzus persicae)	Antifeedant Index (Al %), dose response (Myzus persicae; [1])	Antifeedant Index (Al %), dose response (Bemisia tabaci; [1])	attractant (phagostimulant) effect at the lowest concentration used (Bemisia tabaci; lowest concentration used (113 μg gFW^−1))
CC1(C)CCC[C@]2(C)[C@@H](C=O)C(C=O)=CC[C@@H]12 [polygodial, reference compound]	attractant (phagostimulant) effect			
CC1(C)CCC[C@]2(C)[C@H]3COC(=O)C3=CC[C@@H]12 [cinnamolide]	attractant (phagostimulant) effect	increases with the increasing concentrations applied	increases with the increasing concentrations applied	not seen
